According to publication PMC6099615, “Anti-glycation, Carbonyl Trapping and Anti-inflammatory Activities of Chrysin Derivatives” (Molecules : A Journal of Synthetic Chemistry and Natural …, 2018):
Values after ≈ are worked out from the molar mass of the structure shown. Where a name gives a salt, the structure may show the parent alone.

Columns and labels:
[1] = Water solubility analysis; format: physicochemical; details: thermodynamic from solid; distilled water, 37 °C, sonication 1 h
Procedure: CS and derivatives were dissolved in distilled water and incubated at 37 °C with sonication for 1 h to maximize solubility. After sonication, undissolved samples were eliminated by centrifugation (7000× g, 37 °C, 5 min). The supernatants were diluted in methanol and filtered through a 0.45 μm disposable syringe filter (Advantec, Dublin, CA, USA) to analyze the concentration of the samples using HPLC analysis.

[2] = in vivo, po; cited from earlier work
[3] = test system: Amadori compound formation; assay: Hemoglobin-δ-gluconolactone assay of Amadori compound formation; format: biochemical; details: for IC50: early stage of AGE formation
AGE formation = assay: Bovine serum albumin-methylglyoxal assay on AGE formation; format: biochemical; details: BSA-methylglyoxal, 37 °C, 48 h
Procedure: Bovine serum albumin (50 mg/mL) was incubated at 37 °C for 48 h with methylglyoxal (100 mM) in sodium phosphate buffer (0.1 M, pH 7.4) containing 0.2 g/L NaN3 in the presence of various concentrations of the compounds (including a control).
(§1) This test was used to evaluate the ability of samples to inhibit cross-linking of the GK peptide in the presence of D-ribose using the method described by Hwang et al. The GK peptide (26.7 mg/mL) was incubated with D-ribose (200 mg/mL) in sodium phosphate buffer (0.5 M, pH 7.4) containing 0.2 g/L NaN3 under sterile conditions at 37 °C for 72 h. […] All reagents and samples were sterilized by filtration through […] membrane filters. The fluorescence intensity was measured at an excitation wavelength of 355 nm and an emission wavelength of 460 nm with a Luminescence spectrometer LS50B (Perkin-Elmer Ltd., Buckinghamshire, England). AG was used as a positive control.

AGEs cross-linking = assay: N-acetyl-glycyl-lysine-methyl ester D-ribose assay on AGE cross-linking; format: biochemical; details: GK peptide-D-ribose, 37 °C, 72 h
Procedure: as §1

solubility at 1 h [1]	Structure (SMILES)	bioavailability [2]	IC50 [3]	IC50 (AGE formation)	IC50 (AGEs cross-linking)	inhibitory activity on Amadori compound formation ([3]; up to a concentration of 10.0 mg/mL)
9 µM (≈ 2.9 µg/mL)	CC(C)=CCOc1cc(O)c2c(=O)cc(-c3ccccc3)oc2c1 [7-O-Prenylchrysin, 7-O-prenylchrysin]	–	–	–	–	–
–	CC(=O)O[C@H](CC(=O)[O-])C[N+](C)(C)C [acetyl-L-carnitine]	43%	–	–	–	–
–	N=C(N)NN [Aminoguanidine, Aminoguanidine hydrochloride, reference compound]	–	110 µM	137 µM	1900 µM	–
10 µM (≈ 2.68 µg/mL)	COc1cc(O)c2c(=O)cc(-c3ccccc3)oc2c1 [7-O-Methoxychrysin, 7-O-methoxychrysin]	–	> 31000 µM	> 200 µM	> 2000 µM	no inhibitory activities
